In patent US8697739B2, “Bicyclic acetyl-CoA carboxylase inhibitors and uses thereof” (Novartis AG, priority 2010, dated 2014) one finds IC50 data, which are given here for 21 molecules.

The structures appear in SMILES notation.

For this assay, the target named is T1, human acetyl-CoA carboxylase 2 (ACC2) (Homo sapiens, UniProt O00763).
T1 construct: The cDNA encoding amino acids 144 to 2458 of human acetyl-CoA carboxylase 2; made in house; host or cells: Sf9 insect cells (baculovirus, pFastBac1)
T1 sequence (O00763 144-2458): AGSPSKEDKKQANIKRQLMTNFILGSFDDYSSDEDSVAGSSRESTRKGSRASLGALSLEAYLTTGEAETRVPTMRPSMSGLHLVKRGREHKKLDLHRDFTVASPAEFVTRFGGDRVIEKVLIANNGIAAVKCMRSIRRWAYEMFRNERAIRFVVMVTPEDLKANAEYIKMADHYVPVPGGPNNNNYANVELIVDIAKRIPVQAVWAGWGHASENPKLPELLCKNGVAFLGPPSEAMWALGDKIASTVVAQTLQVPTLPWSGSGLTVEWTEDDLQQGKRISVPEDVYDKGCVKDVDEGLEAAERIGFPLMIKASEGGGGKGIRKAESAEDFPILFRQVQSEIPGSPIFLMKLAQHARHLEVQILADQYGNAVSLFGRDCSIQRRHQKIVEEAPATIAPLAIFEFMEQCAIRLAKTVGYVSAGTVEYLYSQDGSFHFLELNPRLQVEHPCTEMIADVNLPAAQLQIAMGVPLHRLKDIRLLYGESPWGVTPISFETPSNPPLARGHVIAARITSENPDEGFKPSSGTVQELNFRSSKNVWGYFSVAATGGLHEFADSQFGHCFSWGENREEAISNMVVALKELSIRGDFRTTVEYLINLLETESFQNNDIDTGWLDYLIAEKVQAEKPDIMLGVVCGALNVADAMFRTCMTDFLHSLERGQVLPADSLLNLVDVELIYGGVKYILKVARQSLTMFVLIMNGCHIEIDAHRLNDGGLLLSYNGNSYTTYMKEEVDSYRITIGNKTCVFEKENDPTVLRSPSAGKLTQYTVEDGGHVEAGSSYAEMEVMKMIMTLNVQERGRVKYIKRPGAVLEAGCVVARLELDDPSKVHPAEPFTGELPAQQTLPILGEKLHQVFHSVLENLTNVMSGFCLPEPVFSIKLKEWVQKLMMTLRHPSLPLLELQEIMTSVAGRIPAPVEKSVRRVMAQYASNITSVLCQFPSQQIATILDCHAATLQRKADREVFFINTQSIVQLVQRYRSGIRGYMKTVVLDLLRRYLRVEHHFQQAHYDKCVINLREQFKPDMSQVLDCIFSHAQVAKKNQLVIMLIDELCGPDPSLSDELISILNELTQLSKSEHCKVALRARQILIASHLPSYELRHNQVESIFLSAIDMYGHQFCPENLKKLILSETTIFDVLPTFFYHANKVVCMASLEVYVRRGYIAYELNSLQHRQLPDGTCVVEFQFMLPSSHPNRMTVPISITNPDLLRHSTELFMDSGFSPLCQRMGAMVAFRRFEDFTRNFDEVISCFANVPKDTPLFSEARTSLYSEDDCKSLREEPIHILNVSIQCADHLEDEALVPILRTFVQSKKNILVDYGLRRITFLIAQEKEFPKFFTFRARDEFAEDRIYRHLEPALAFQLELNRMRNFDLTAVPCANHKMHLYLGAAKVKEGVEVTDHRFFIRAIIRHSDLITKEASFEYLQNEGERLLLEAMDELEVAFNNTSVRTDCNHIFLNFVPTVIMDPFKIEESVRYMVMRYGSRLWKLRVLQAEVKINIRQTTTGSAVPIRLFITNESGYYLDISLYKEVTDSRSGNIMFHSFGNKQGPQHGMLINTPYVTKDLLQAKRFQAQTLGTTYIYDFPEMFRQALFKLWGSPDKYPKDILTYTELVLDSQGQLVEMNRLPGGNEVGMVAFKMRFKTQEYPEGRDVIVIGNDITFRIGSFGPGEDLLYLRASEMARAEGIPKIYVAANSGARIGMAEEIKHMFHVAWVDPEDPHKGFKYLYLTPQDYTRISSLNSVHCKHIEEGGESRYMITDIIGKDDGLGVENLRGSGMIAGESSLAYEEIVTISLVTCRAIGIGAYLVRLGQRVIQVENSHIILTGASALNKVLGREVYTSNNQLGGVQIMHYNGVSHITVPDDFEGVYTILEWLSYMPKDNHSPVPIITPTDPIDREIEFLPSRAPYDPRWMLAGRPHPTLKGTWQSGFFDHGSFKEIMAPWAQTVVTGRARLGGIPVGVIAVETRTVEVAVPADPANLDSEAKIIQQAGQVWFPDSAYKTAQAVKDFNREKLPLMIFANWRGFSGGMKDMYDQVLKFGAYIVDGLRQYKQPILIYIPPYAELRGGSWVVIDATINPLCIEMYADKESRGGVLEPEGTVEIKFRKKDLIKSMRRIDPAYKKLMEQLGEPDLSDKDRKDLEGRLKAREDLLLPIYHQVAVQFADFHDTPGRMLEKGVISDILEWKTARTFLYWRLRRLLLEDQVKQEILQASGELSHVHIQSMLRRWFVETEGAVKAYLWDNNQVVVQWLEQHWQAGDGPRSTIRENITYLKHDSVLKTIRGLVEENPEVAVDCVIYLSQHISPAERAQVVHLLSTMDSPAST
Kind of assay: Acetyl-CoA carboxylase enzyme assay (malonyl-CoA formation by LC/MS/MS). As to conditions: recombinant human ACC2 (aa 144-2458); read-out: IC50 ACC2. Type of assay: biochemical. Summed up: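 Malonyl-CoA formation was read by LC/MS/MS MRM against a [13C3]-malonyl-CoA internal standard, after acetic acid quench. The enzyme was baculovirus/Sf9-expressed human ACC2 residues 144–2458, given 15 minutes room-temperature compound preincubation in HEPES pH 7.5 buffer with MgCl2, citrate and DTT. Substrate solution held 50 μM acetyl-CoA, 120 μM ATP and 2 mM KHCO3.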
Regarding `Cc1cc(CO)ccc1-c1cc2ccc(S(=O)(=O)N[C@H]3CC[C@H](C(=O)N4CCNC(C(F)(F)F)C4)CC3)cc2[nH]1` (stereo partly drawn) [Example 317, 2-(4-(hydroxymethyl)-2-methylphenyl)-N-((1r,4r)-4-(3-(trifluoromethyl)piperazine-1-carbonyl)cyclohexyl)-1H-indole-6-sulfonamide], the IC50 was found to be 25 nM.
Consider `CCCN(C)C(=O)[C@H]1CC[C@H](NS(=O)(=O)c2ccc3[nH]c(-c4ccc(N5CCN(C)CC5)cc4)nc3c2)CC1` [Example 565, (1r,4r)-N-methyl-4-(2-(4-(4-methylpiperazin-1-yl)phenyl)-1H-benzo[d]imidazole-5-sulfonamido)-N-propylcyclohexanecarboxamide], for which the half-inhibitory concentration (IC50) came out at 48 nM.
In the case of `C[C@@H](NC(=O)[C@H]1CC[C@H](NS(=O)(=O)c2ccc3cc(-c4ccccc4)n(C)c3c2)CC1)c1ccc(F)cc1` [Example 20, (1r,4R)—N—((R)-1-(4-fluorophenyl)ethyl)-4-(1-methyl-2-phenyl-1H-indole-6-sulfonamido)cyclohexanecarboxamide] it was less than 10 nM.
In the case of `C[C@H]1COCCN1C(=O)[C@H]1CC[C@H](NS(=O)(=O)c2ccc3cc(C4CC4)n(C)c3c2)CC1` [Example 422, 2-cyclopropyl-1-methyl-N-((1S,4r)-4-((S)-3-methylmorpholine-4-carbonyl)cyclohexyl)-1H-indole-6-sulfonamide] it was 285 nM; in that of `Cn1c(-c2ccc(CCC(=O)O)cc2)cc2ccc(S(=O)(=O)N[C@H]3CC[C@H](C(=O)N4CCC[C@@H]4C(F)(F)F)CC3)cc21` [Example 397, 3-(4-(1-methyl-6-(N-((1R,4r)-4-((R)-2-(trifluoromethyl)pyrrolidine-1-carbonyl)cyclohexyl)sulfamoyl)-1H-indol-2-yl)phenyl)propanoic acid], less than 10 nM.
In the case of `C[C@@H](NC(=O)[C@H]1CC[C@H](NC(=O)Nc2ccc3[nH]c(-c4ccccc4)nc3c2)CC1)c1ccc(F)cc1` [Example 41, (1r,4R)-N-((R)-1-(4-fluorophenyl)ethyl)-4-(3-(2-phenyl-1H-benzo[d]imidazol-5-yl)ureido)cyclohexanecarboxamide], the IC50 amounted to 4640 nM.
For `COc1ccc(-c2nc3ccc(S(=O)(=O)N[C@H]4CC[C@H](C(=O)OCc5ccccc5)CC4)cc3[nH]2)cc1` [Example 100, (1r,4r)-benzyl 4-(2-(4-methoxyphenyl)-1H-benzo[d]imidazole-6-sulfonamido)cyclohexanecarboxylate], the concentration for half-maximal inhibition (IC50) amounted to 760 nM.
Take `COC(=O)[C@H]1CC[C@H](NS(=O)(=O)c2ccc3nc(-c4cc(C)nc(C)c4)ccc3c2)CC1` [Example 252, (1r,4r)-methyl 4-(2-(2,6-dimethylpyridin-4-yl)quinoline-6-sulfonamido)cyclohexanecarboxylate]: the half-maximal inhibitory concentration (IC50) was more than 35000 nM.
As to `CN(Cc1ccccc1)C(=O)[C@H]1CC[C@H](NS(=O)(=O)c2ccc3[nH]c(-c4ccccc4)nc3c2)CC1` [Example 619, (1r,4r)-N-benzyl-N-methyl-4-(2-phenyl-1H-benzo[d]imidazole-5-sulfonamido)cyclohexanecarboxamide], the IC50 amounted to 558 nM.
With `CC(C)(C)c1nnc([C@H]2CC[C@H](NS(=O)(=O)c3ccc4[nH]c(Nc5ccccc5)nc4c3)CC2)o1` [Example 597, N-((1r,4r)-4-(5-tert-butyl-1,3,4-oxadiazol-2-yl)cyclohexyl)-2-(phenylamine)-1H-benzo[d]imidazole-5-sulfonamide] the figure was 162 nM; with `CC[C@@H](NC(=O)[C@H]1CC[C@H](NS(=O)(=O)c2cnc3ccccc3c2)CC1)c1ccccc1` [Example 56, (1r,4R)-N-((R)-1-phenylpropyl)-4-(quinoline-3-sulfonamido)cyclohexanecarboxamide], 189 nM.
As to `COC(=O)C(C)(C)[C@@H](NC(=O)[C@H]1CC[C@H](NS(=O)(=O)c2ccc3cc(-c4ccccc4)n(C)c3c2)CC1)c1ccccc1` [Example 407, (S)-methyl 2,2-dimethyl-3-((1r,4S)-4-(1-methyl-2-phenyl-1H-indole-6-sulfonamido)cyclohexanecarboxamido)-3-phenylpropanoate], the IC50 is less than 10 nM.
With `CC1(C)CN(C(=O)[C@H]2CC[C@H](NS(=O)(=O)c3ccc4cc(-c5ccccc5)[nH]c4c3)CC2)CCO1` [Example 464, N-((1r,4r)-4-(2,2-dimethylmorpholine-4-carbonyl)cyclohexyl)-2-phenyl-1H-indole-6-sulfonamide], the IC50 was 30 nM.
As to `C[C@@H](NC(=O)[C@H]1CC[C@H](NS(=O)(=O)c2ccc3nc(N4CCCCC4)ccc3c2)CC1)c1ccc(F)cc1` [Example 216, (1r,4R)-N-((R)-1-(4-fluorophenyl)ethyl)-4-(2-(piperidin-1-yl)quinoline-6-sulfonamido)cyclohexanecarboxamide], the IC50 came to 180 nM.
With `CC(C)(O)[C@H]1CCCN1C(=O)[C@H]1CC[C@H](NS(=O)(=O)c2ccc3cc(-c4ccccc4)[nH]c3c2)CC1` [Example 465, N-((1R,4r)-4-((R)-2-(2-hydroxypropan-2-yl)pyrrolidine-1-carbonyl)cyclohexyl)-2-phenyl-1H-indole-6-sulfonamide], the IC50 worked out at 20 nM.
Regarding `C[C@@H](NC(=O)[C@H]1CC[C@H](NS(=O)(=O)c2ccc3c(c2)N(C)CCO3)CC1)c1ccc(F)cc1` [Example 157, (1r,4R)-N-((R)-1-(4-fluorophenyl)ethyl)-4-(4-methyl-3,4-dihydro-2H-benzo[b][1,4]oxazine-6-sulfonamido)cyclohexanecarboxamide], the IC50 is 38 nM.
Turning to `C[C@H]1CCCCN1C(=O)[C@H]1CC[C@H](NS(=O)(=O)c2ccc3c(C#N)c(-c4ccc(CCC(=O)O)cc4)n(C)c3c2)CC1` [Example 415, 3-(4-(3-cyano-1-methyl-6-(N-((1S,4r)-4-((S)-2-methylpiperidine-1-carbonyl)cyclohexyl)sulfamoyl)-1H-indol-2-yl)phenyl)propanoic acid], the IC50 was less than 10 nM.
For `COCCc1ccc(-c2[nH]c3cc(S(=O)(=O)N[C@H]4CC[C@H](C(=O)N5CCC6(CC5)COC6)CC4)ccc3c2Cl)cc1` [Example 485, N-((1r,4r)-4-(2-oxa-7-azaspiro[3.5]nonane-7-carbonyl)cyclohexyl)-3-chloro-2-(4-(2-methoxyethyl)phenyl)-1H-indole-6-sulfonamide], the IC50 was determined as 43 nM.
As for `CC(C)(O)[C@@H](NC(=O)[C@H]1CC[C@H](NS(=O)(=O)c2ccc3ccccc3c2)CC1)c1ccccc1` [Example 96, (1r,4S)-N-((S)-2-hydroxy-2-methyl-1-phenylpropyl)-4-(naphthalene-2-sulfonamido)cyclohexanecarboxamide], the 50% inhibitory concentration (IC50) was found to be 10 nM.
For the molecule `Cc1cc(-c2ccc3cc(S(=O)(=O)N[C@H]4CC[C@H](C(=O)N5CCNC[C@H]5c5ccccc5)CC4)ccc3n2)cc(C)n1` [Example 257, 2-(2,6-dimethylpyridin-4-yl)-N-((1R,4r)-4-((R)-2-phenylpiperazine-1-carbonyl)cyclohexyl)quinoline-6-sulfonamide], the IC50 is 50 nM.
As for `Cn1c(-c2ccc(CO)cc2)cc2ccc(S(=O)(=O)N[C@H]3CC[C@H](C(=O)N4CCN[C@H](C(F)(F)F)C4)CC3)cc21` [Example 337, 2-(4-(hydroxymethyl)phenyl)-1-methyl-N-((1S,4r)-4-((S)-3-(trifluoromethyl)piperazine-1-carbonyl)cyclohexyl)-1H-indole-6-sulfonamide], the half-maximal inhibitory concentration (IC50) was found to be 20 nM.
